In patent publication US10407408B2, “Imide derivatives and use thereof as medicine” (MITSUBISHI TANABE PHARMA CORPORATION, priority 2015, dated 2019) one finds IC50 data, which are given here for 27 compounds.

A word on the IC50: it is the concentration that inhibits the measured activity by half.

The structures appear in SMILES notation. Structures can show the parent of a compound that is named as a salt. Where only a bound is given, the exact number is not on record here.

The experiment deals with proMMP-9 production by human TNFα stimulated THP-1 cell. Description: Action on proMMP-9 production by human TNFα stimulated THP-1 cell (ELISA of culture supernatant). The experiment is classed as cell-based. As to conditions: THP-1 cells, human TNFα 10 ng/mL, 24 hr; IC50 from 3 concentrations (5, 50, 500 or 1, 10, 100 nmol/L); read-out: proMMP-9 suppression rate IC50. On the procedure: Experimental Example 1: Action of Human TNFα Stimulated THP-1 Cell on proMMP-9 Production
THP-1 cell (human monocytic leukemia cell line) was adjusted to 1×10^7 cells/mL in a culture medium (10% fetal bovine serum/RPMI1640 medium), and dispensed to a 96 well multiplate. This was equilibrated under the conditions of 37° C./5% CO2, and a culture medium containing human TNFα (final concentration 10 ng/mL) and a test compound was dissolved therein. After incubation under the conditions of 37° C./5% CO2 for 24 hr, the culture medium was centrifuged and the culture supernatant was collected, which was subjected to the following measurement.
Quantification of proMMP-9 in Culture Supernatant
The proMMP-9 concentration of the collected culture supernatant was quantified using a commercially available measurement reagent (manufactured by GE Healthcare, MMP-9, Human, Biotrak ELISA System).
Calculation of proMMP-9 Suppression Rate
The proMMP-9 suppression rate of the test compound was calculated from the following formula: % suppression=100−((Test−Min)/(Max−Min)×100) wherein Max is proMMP-9 concentration of culture supernatant induced by stimulation with human TNFα, without addition of a test compound (added with solvent alone) Min is proMMP-9 concentration of culture supernatant without addition of a test compound (added with solvent alone) and without stimulation with human TNFα, and Test is proMMP-9 concentration of culture supernatant induced by stimulation with human TNFα when a test compound is added.
Furthermore, the concentration of the test compound necessary for suppressing proMMP-9 production by human TNFα stimulated THP-1 cell by 50% (IC50 value) was calculated from 3 points of proMMP-9 suppression rate at test compound concentrations of 5, 50 and 500 nmol/L or 1, 10 and 100 nmol/L.
MMP-9 is produced as a precursor proMMP-9 by the stimulated cells, extracellularly activated and expresses the physiological activity as MMP-9. That is, evaluation of the suppression of proMMP-9 produced by the cell means evaluation of the suppression of production of MMP-9. The same applies to MMP-2, and evaluation of the suppression of proMMP-2 produced by the cell means evaluation of the suppression of production of MMP-2.
As to `Cc1cnc(N2CCN(C(=O)c3ccc(C4(C(C)C)NC(=O)NC4=O)c(O)c3)CC2)c(C)c1` (stereo not drawn) [Example 20, 5-{4-[4-(3,5-dimethylpyridin-2-yl)piperazine-1-carbonyl]-2-hydroxyphenyl}-5-isopropylimidazolidine-2,4-dione], the IC50 came out at 6 nM.

On to `CC[C@]1(c2ccc(C(=O)N3CCC(c4cnn(-c5ccc(C)cc5)c4)CC3)cc2)NC(=O)NC1=O` [Example 27, (R)-5-ethyl-5-{4-[4-(1-p-tolyl-1H-pyrazol-4-yl)piperidine-1-carbonyl]phenyl}imidazolidine-2,4-dione], for which the IC50 is 16 nM.

Take `COC(=O)[C@@H]1CN(c2ncc(C)cc2C)CCN1C(=O)c1ccc([C@@]2(C(C)C)NC(=O)NC2=O)cc1` [Example 64, (S)-4-(3,5-dimethylpyridin-2-yl)-1-[4-((R)-4-isopropyl-2,5-dioxoimidazolidin-4-yl)benzoyl]piperazine-2-carboxylic acid methyl ester]: the IC50 came out at 64 nM.

In the case of `Cc1cnc(N2CCN(C(=O)c3ccc([C@@]4(C(C)C)NC(=O)NC4=O)cc3)C3(CCC3)C2)c(C)c1` [Example 65, (R)-5-{4-[8-(3,5-dimethylpyridin-2-yl)-5,8-diazaspiro[3.5]nonane-5-carbonyl]phenyl}-5-isopropylimidazolidine-2,4-dione], the IC50 was determined as 9 nM.

As to `COCC1CN(C(=O)c2ccc([C@@]3(C(C)C)NC(=O)NC3=O)cc2)CCN1c1ncc(C)cc1C` (stereo partly drawn) [Example 66, (R)-5-{4-[4-(3,5-dimethylpyridin-2-yl)-3-methoxymethylpiperazine-1-carbonyl]phenyl}-5-isopropylimidazolidine-2,4-dione], the IC50 is < 5 nM.

Consider `Cc1cnc(N2CCN(C(=O)c3ccc(C4(CF)NC(=O)NC4=O)cc3)C(C)(C)C2)c(C)c1` (stereo not drawn) [Example 69, 5-{4-[4-(3,5-dimethylpyridin-2-yl)-2,2-dimethylpiperazine-1-carbonyl]phenyl}-5-fluoromethylimidazolidine-2,4-dione], for which the IC50 is 11 nM.

Take `Cc1cc(C)c(N2CCN(C(=O)c3ccc(C4(c5ccccc5)NC(=O)NC4=O)cc3)CC2)nc1C` (stereo not drawn) [Example 108, 5-phenyl-5-{4-[4-(3,5,6-trimethylpyridin-2-yl)piperazine-1-carbonyl]phenyl}imidazolidine-2,4-dione]: the IC50 came out at 11 nM.

Take `COC1(C2(c3ccc(C(=O)N4CCN(c5ncc(C)cc5C)CC4)cc3)NC(=O)NC2=O)CC1` (stereo not drawn) [Example 112, 5-{4-[4-(3,5-dimethylpyridin-2-yl)piperazine-1-carbonyl]phenyl}-5-(1-methoxycyclopropyl) imidazolidine-2,4-dione]: the half-inhibitory concentration (IC50) came out at 11 nM.

Turning to `Cc1cnc(N2CCN(C(=O)c3ccc(C4(C(C)C)NC(=O)NC4=O)s3)CC2)c(C)c1` (stereo not drawn) [Example 114, 5-{5-[4-(3,5-dimethylpyridin-2-yl)piperazine-1-carbonyl]thiophen-2-yl}-5-isopropylimidazolidine-2,4-dione], the IC50 is 82 nM.

Take `CC[C@]1(c2ccc(C(=O)N3CCN(c4ncc(C)cc4C)CC3)cc2)NC(=O)NC1=O` [Example 124, (R)-5-{4-[4-(3,5-dimethylpyridin-2-yl)piperazine-1-carbonyl]phenyl}-5-ethylimidazolidine-2,4-dione]: the IC50 was found to be 1 nM.

With `Cc1cc(C2(C)NC(=O)NC2=O)ccc1C(=O)N1CCN(c2nc(C)c(C)cc2C)CC1` (stereo not drawn) [Example 126, 5-methyl-5-{3-methyl-4-[4-(3,5,6-trimethylpyridin-2-yl)piperazine-1-carbonyl]phenyl}imidazolidine-2,4-dione], the IC50 was 8 nM.

With `Cc1cnc(N2CCN(C(=O)c3ccc(C4(C(C)(C)C)NC(=O)NC4=O)cc3)CC2)c(C)n1` (stereo not drawn) [Example 137, 5-tert-butyl-5-[4-(3′,5′-dimethyl-2,3,5,6-tetrahydro[1,2′]bipyrazinyl-4-carbonyl)phenyl]imidazolidine-2,4-dione], the IC50 was 14 nM.

With `Cc1nnc(N2CCN(C(=O)c3ccc([C@@]4(C(C)C)NC(=O)NC4=O)cc3)CC2)c(C)c1C` [Example 141, (R)-5-isopropyl-5-{4-[4-(4,5,6-trimethylpyridazin-3-yl)piperazine-1-carbonyl]phenyl}imidazolidine-2,4-dione], the IC50 was 70 nM.

For `Cc1ccc(C(=O)C2CCN(C(=O)c3ccc([C@@]4(C)NC(=O)NC4=O)cc3)CC2)cc1` [Example 150, (R)-5-methyl-5-{4-[4-(4-methylbenzoyl)piperidine-1-carbonyl]phenyl}imidazolidine-2,4-dione], the IC50 amounted to 25 nM.

Consider `Cc1ccc(OC2CCN(C(=O)c3ccc([C@@]4(C)NC(=O)NC4=O)cc3)CC2)cc1` [Example 152, (R)-5-methyl-5-[4-(4-p-tolyloxypiperidine-1-carbonyl]phenyl}imidazolidine-2,4-dione], for which the IC50 was determined as 14 nM.

As for `Cc1cnc2c(c1)CCN2[C@H]1CCN(C(=O)c2ccc([C@@]3(C(C)C)NC(=O)NC3=O)cc2)C1` [Example 158, (R)-5-isopropyl-5-{4-[(S)-3-(5-methyl-2,3-dihydropyrrolo[2,3-b]pyridin-1-yl)pyrrolidine-1-carbonyl]phenyl}imidazolidine-2,4-dione], the IC50 worked out at 49 nM.

As for `CCC1(c2ccc(C(=O)N3CCC(c4cc(-c5ccc(C)cc5)[nH]n4)CC3)cn2)CC(=O)NC1=O` (stereo not drawn) [Example 165, 3-ethyl-3-{5-[4-(5-p-tolyl-1H-pyrazol-3-yl)piperidine-1-carbonyl}pyridin-2-yl}pyrrolidine-2,5-dione], the concentration for half-maximal inhibition (IC50) was determined as 90 nM.

Turning to `CC[C@]1(c2ccc(C(=O)N3CCC(c4nnn(-c5ccc(C)cc5)n4)CC3)cc2)NC(=O)NC1=O` [Example 170, (R)-5-ethyl-5-{4-[4-(2-p-tolyl-2H-tetrazol-5-yl)piperidine-1-carbonyl]phenyl}imidazolidine-2,4-dione], the IC50 is 60 nM.

Take `CC[C@]1(c2ccc(C(=O)N3CCC(c4cn(-c5ccc(C)cc5)cn4)CC3)cc2)NC(=O)NC1=O` [Example 175, (R)-5-ethyl-5-{4-[4-(1-p-tolyl-1H-imidazol-4-yl)piperidine-1-carbonyl]phenyl}imidazolidine-2,4-dione]: the IC50 came to 88 nM.

As to `CCC1(c2ccc(C(=O)N3CCC(c4cn(-c5ccc(C)cc5)nn4)CC3)cc2F)NC(=O)NC1=O` (stereo not drawn) [Example 178, 5-ethyl-5-{2-fluoro-4-[4-(1-p-tolyl-1H-[1,2,3]triazol-4-yl)piperidine-1-carbonyl]phenyl}imidazolidine-2,4-dione], the IC50 amounted to 34 nM.

Take `Cc1cnc(N2CCN(C(=O)c3ccc(C4(C(C)C)C(=O)NC(=O)N4C)cc3)CC2)c(C)c1` (stereo not drawn) [Example 182, 5-{4-[4-(3,5-dimethylpyridin-2-yl)piperazine-1-carbonyl]phenyl}-5-isopropyl-1-methylimidazolidine-2,4-dione]: the IC50 is 67 nM.

In the case of `Cc1cnc(NC2CN(C(=O)c3ccc([C@@]4(C(C)C)NC(=O)NC4=O)cc3)C2)c(C)c1` [Example 185, (R)-5-{4-[3-(3,5-dimethylpyridin-2-ylamino)azetidine-1-carbonyl]phenyl}-5-isopropylimidazolidine-2,4-dione.hydrochloride], the IC50 was 82 nM.

As for `Cc1cnc(N[C@@H]2CN(C(=O)c3ccc([C@@]4(C(C)C)NC(=O)NC4=O)cc3)C[C@H]2O)c(C)c1` [Example 187, (R)-5-{4-[(3R,4R)-3-(3,5-dimethylpyridin-2-ylamino)-4-hydroxypyrrolidine-1-carbonyl]phenyl}-5-isopropylimidazolidine-2,4-dione], the IC50 was 19 nM.

With `Cc1cnc(N[C@H]2C[C@@H](C#N)N(C(=O)c3ccc([C@@]4(C(C)C)NC(=O)NC4=O)cc3)C2)c(C)c1` [Example 198, (2S,4S)-4-(3,5-dimethylpyridin-2-ylamino)-1-[4-((R)-4-isopropyl-2,5-dioxoimidazolidin-4-yl)benzoyl]pyrrolidine-2-carbonitrile], the IC50 is 2 nM.

For the compound `Cc1cnc2nc(C3CCN(C(=O)c4ccc([C@@]5(C(C)C)NC(=O)NC5=O)cc4)CC3)sc2c1` [Example 220, (R)-5-isopropyl-5-{4-[4-(6-methylthiazolo[4,5-b]pyridin-2-yl)piperidine-1-carbonyl]phenyl}imidazolidine-2,4-dione], the IC50 was found to be 55 nM.

Regarding `Cc1ccc2nc(C3CCN(C(=O)c4ccc([C@@]5(C(C)C)NC(=O)NC5=O)cc4)CC3)oc2n1` [Example 221, (R)-5-isopropyl-5-{4-[4-(5-methyloxazolo[5,4-b]pyridin-2-yl)piperidine-1-carbonyl]phenyl}imidazolidine-2,4-dione], the IC50 amounted to 72 nM.

As to `Cc1ccc2nc(C3CCN(C(=O)c4ccc([C@@]5(C(C)C)NC(=O)NC5=O)cc4)CC3)sc2n1` [Example 222, (R)-5-isopropyl-5-{4-[4-(5-methylthiazolo[5,4-b]pyridin-2-yl)piperidine-1-carbonyl]phenyl}imidazolidine-2,4-dione], the IC50 amounted to 76 nM.
